Source: patent publication US20020055099A1, “SEQUENTIAL CDNA LIBRARY AND USES THEREOF” (priority 1999, published 2002)

How the values were obtained:
[1] = test system: HO-1 human melanoma cells; experiment: SCLA reverse Northern hybridization of arrayed subtracted cDNA library with mRNAs from treated HO-1 cells; type: cell-based; conditions: IFN-β 2000 units/ml, MEZ 10 ng/ml, staurosporine 500 ng/ml, temporally pooled mRNAs
Protocol: Staurosporine-treated HO-1 cells were harvested at 4, 8 and 24 hrs after treatment.
For reverse Northern analysis, RNA samples from each time point were pooled and 20 μg of pooled total RNA was reverse transcribed in two reactions into a ^32P-labeled first strand cDNA probe. After heating at 70° C. for 10 min and quenching on ice for two min, a mixture consisting of 10 pmole of T13V and 10 μg of the total RNA mixture in 50 mM Tris-HCl (pH 8.3), 75 mM KCl, 3 mM MgCl2, 10 mM DTT, 0.5 mM DATP, 0.5 mM dGTP, 0.5 mM dTTP, 0.02 mM dCTP, 5 U RNase inhibitor (Gibco BRL), 100 μCi dCTP (3000 Ci/mmole from Amersham) and 200 U Superscript RT II (Gibco BRL) was added (final 25 μl). The reaction mixture was incubated at 42° C. for one hr and at 37° C. for 30 min after addition of 2 μl of RNase H (10U, Gibco BRL). The membrane was hybridized at 42° C. overnight in a 50% formamide hybridization solution. The hybridized membrane was washed 2× at room temperature for 15 min with 2× SSC containing 0.1% SDS and then washed for at least one hr at 55° C. with 0.1× SSC containing 0.1% SDS. The membranes were exposed for different times to autoradiography.
After subtraction hybridization, a temporally spaced amplified subtracted (TSS) cDNA library (consisting of 4,979 plaques) was picked and plated individually (arrayed) in thirteen 384-well microtiter plates. […] This approach permitted the identification of cDNAs displaying altered expression as a function of the specific treatment protocol.

[2] = test system: HO-1 human melanoma cells; conditions: HO-1 cells, cited from earlier work
[3] = IFN-β 2000 units/ml, MEZ 10 ng/ml where printed

Structure (SMILES) | clones induced only by the agent (uniquely positive after a single treatment protocol) [1] | effect on HO-1 cell growth [2, 3] | melanin synthesis / differentiation marker [2, 3] | morphological differentiation ([2]; MEZ 10 ng/ml) | positive clones (DMAC) identified after treatment, of 427 positive clones [1] | apoptosis [2]
C=C(C)[C@@]12O[C@@]3(c4ccccc4)O[C@@H]1[C@@H]1[C@@H]4O[C@]4(CO)[C@@H](O)[C@]4(O)C(=O)C(C)=C[C@H]4[C@@]1(O3)[C@H](C)[C@H]2OC(=O)/C=C/C=C/c1ccccc1 [MEZ, mezerein] | 12 clones | growth suppression | elevated melanin levels | exhibit morphological differentiation |  | 
CN[C@@H]1C[C@H]2O[C@@](C)([C@@H]1OC)n1c3ccccc3c3c4c(c5c6ccccc6n2c5c31)C(=O)NC4 [staurosporine] | 25 clones |  |  |  | 107 clones | induces apoptosis
